From the NIST ThermoML archive (doi:10.1016/j.fluid.2012.08.030)

How the values were obtained:
[1] = Liquid; for mass density: 101 kPa, Vibrating tube method; for vapor or sublimation pressure: Ebulliometric method (Recirculating still)
[2] = xn = mol fraction of the nth substance listed; details: 101 kPa, Liquid, Vibrating tube method

CCCCOCCO [2-butoxyethan-1-ol]
[1]
Details	mass density [kg/m3]	vapor or sublimation pressure [kPa]
303.15 K	892.28	–
308.15 K	888.19	–
313.15 K	884.17	–
318.15 K	880.02	–
406.8 K	–	28.1
412.1 K	–	34.2
417.35 K	–	41.3
421.57 K	–	47.9
424.9 K	–	53.7
428.43 K	–	60.5
432.22 K	–	68.6
435.52 K	–	76.4
437.42 K	–	81.2
440.2 K	–	88.7
442.49 K	–	95.3

CCCCOCCO [2-butoxyethan-1-ol] + CN1CCCC1=O
mass density [kg/m3], [2]
Details	303.15 K	308.15 K	313.15 K	318.15 K
x2 = 0	892.28	888.19	884.17	880.02
x2 = 0.132	914.72	911.2	907.8	904.37
x2 = 0.255	934.22	931.07	928.06	925.08
x2 = 0.369	951.2	948.27	945.46	942.72
x2 = 0.477	966.04	963.19	960.43	957.74
x2 = 0.577	979	976.12	973.27	970.48
x2 = 0.672	990.36	987.35	984.32	981.3
x2 = 0.761	1000.3	997.1	993.8	990.46
x2 = 0.845	1009.04	1005.59	1001.93	998.18
x2 = 0.925	1016.72	1012.95	1008.89	1004.66
x2 = 0.948	1018.83	1014.97	1010.77	1006.39
x2 = 0.963	1020.19	1016.26	1011.97	1007.49
x2 = 0.978	1021.52	1017.52	1013.14	1008.55
x2 = 0.993	1022.82	1018.74	1014.27	1009.57

CCOCCO [2-ethoxyethan-1-ol]
[1]
Details	mass density [kg/m3]	vapor or sublimation pressure [kPa]
303.15 K	921.21	–
308.15 K	916.48	–
313.15 K	911.88	–
318.15 K	907.79	–
373.48 K	–	28.1
378.36 K	–	34.2
383.18 K	–	41.3
387.06 K	–	47.9
390.12 K	–	53.7
393.37 K	–	60.5
396.86 K	–	68.6
399.9 K	–	76.4
401.65 K	–	81.2
404.22 K	–	88.7
406.33 K	–	95.3

CCOCCO [2-ethoxyethan-1-ol] + CN1CCCC1=O
mass density [kg/m3], [2]
Details	303.15 K	308.15 K	313.15 K	318.15 K
x2 = 0	921.21	916.48	911.88	907.79
x2 = 0.101	936.06	931.85	927.8	924.28
x2 = 0.202	949.87	946.07	942.45	939.35
x2 = 0.302	962.64	959.15	955.84	953.02
x2 = 0.402	974.38	971.1	967.97	965.3
x2 = 0.503	985.1	981.93	978.86	976.19
x2 = 0.602	994.78	991.62	988.5	985.68
x2 = 0.702	1003.45	1000.2	996.91	993.82
x2 = 0.802	1011.12	1007.68	1004.1	1000.58
x2 = 0.851	1014.58	1011.01	1007.23	1003.46
x2 = 0.901	1017.78	1014.06	1010.06	1006
x2 = 0.926	1019.29	1015.48	1011.37	1007.14
x2 = 0.951	1020.74	1016.84	1012.59	1008.2
x2 = 0.982	1022.5	1018.47	1014.05	1009.43

COCCO [2-methoxyethan-1-ol]
[1]
Details	mass density [kg/m3]	vapor or sublimation pressure [kPa]
303.15 K	955.74	–
308.15 K	951.14	–
313.15 K	946.25	–
318.15 K	941.59	–
364.15 K	–	28.1
368.84 K	–	34.2
373.48 K	–	41.3
377.22 K	–	47.9
380.17 K	–	53.7
383.3 K	–	60.5
386.66 K	–	68.6
389.59 K	–	76.4
391.28 K	–	81.2
393.75 K	–	88.7
395.78 K	–	95.3

COCCO [2-methoxyethan-1-ol] + CN1CCCC1=O
mass density [kg/m3], [2]
Details	303.15 K	308.15 K	313.15 K	318.15 K
x2 = 0	955.74	951.14	946.25	941.59
x2 = 0.084	965.64	961.46	957.05	952.92
x2 = 0.171	975.06	971.25	967.28	963.59
x2 = 0.261	983.98	980.47	976.83	973.49
x2 = 0.354	992.29	989	985.62	982.52
x2 = 0.451	999.91	996.77	993.52	990.55
x2 = 0.552	1006.73	1003.64	1000.44	997.46
x2 = 0.657	1012.64	1009.49	1006.19	1003.04
x2 = 0.767	1017.5	1014.17	1010.64	1007.15
x2 = 0.881	1021.17	1017.52	1013.58	1009.56
x2 = 0.916	1022	1018.23	1014.14	1009.93
x2 = 0.94	1022.5	1018.64	1014.43	1010.07
x2 = 0.97	1023.01	1019.04	1014.68	1010.13
x2 = 0.988	1023.3	1019.24	1014.78	1010.1

CN1CCCC1=O [N-methylpyrrolidone]
[1]
Details	mass density [kg/m3]	vapor or sublimation pressure [kPa]
303.15 K	1023.45	–
308.15 K	1019.34	–
313.15 K	1014.82	–
318.15 K	1010.06	–
430.09 K	–	28.1
436.5 K	–	34.2
442.88 K	–	41.3
448.05 K	–	47.9
452.13 K	–	53.7
456.48 K	–	60.5
461.17 K	–	68.6
465.29 K	–	76.4
467.66 K	–	81.2
471.15 K	–	88.7
474.01 K	–	95.3

CN1CCCC1=O [N-methylpyrrolidone] + CCCCOCCO
[2], x1 = 1
Details	mass density [kg/m3]
303.15 K	1023.45
308.15 K	1019.34
313.15 K	1014.82
318.15 K	1010.06

CN1CCCC1=O [N-methylpyrrolidone] + CCOCCO
[2], x1 = 1
Details	mass density [kg/m3]
303.15 K	1023.45
308.15 K	1019.34
313.15 K	1014.82
318.15 K	1010.06

CN1CCCC1=O [N-methylpyrrolidone] + COCCO
[2], x1 = 1
Details	mass density [kg/m3]
303.15 K	1023.45
308.15 K	1019.34
313.15 K	1014.82
318.15 K	1010.06
